Source: patent publication US11607446B2, “Personalized immunotherapy against several neuronal and brain tumors” (Immatics Biotechnologies GmbH, priority 2013, dated 2023)
Where two headings read alike, the source gives them in different places.

System: CD8+ T cells
Experiment: In vitro immunogenicity of HLA-A*24 class I peptides: in vitro T-cell priming with aAPCs loaded with peptide/MHC complexes and anti-CD28 antibody, pMHC multimer readout
Format: cell-based, human
Conditions: for Wells: share of positive wells in the in vitro immunogenicity experiments
Procedure: In order to obtain information regarding the immunogenicity of the TUMAPs of the present invention, we performed investigations using an in vitro T-cell priming assay based on repeated stimulations of CD8+ T cells with artificial antigen presenting cells (aAPCs) loaded with peptide/MHC complexes and anti-CD28 antibody.
Isolated CD8+ lymphocytes or PBMCs were incubated until use in T-cell medium (TCM) consisting of RPMI-Glutamax (Invitrogen, Karlsruhe, Germany) supplemented with 10% heat inactivated human AB serum (PAN-Biotech, Aidenbach, Germany), 100 U/ml Penicillin/100 μg/ml Streptomycin (Cambrex, Cologne, Germany), 1 mM sodium pyruvate (CC Pro, Oberdorla, Germany), 20 μg/ml Gentamycin (Cambrex). 2.5 ng/ml IL-7 (PromoCell, Heidelberg, Germany) and 10 U/ml IL-2 (Novartis Pharma, Nurnberg, Germany) were also added to the TCM at this step. Generation of pMHC/anti-CD28 coated beads, T-cell stimulations and readout was performed in a highly defined in vitro system using four different pMHC molecules per stimulation condition and 8 different pMHC molecules per readout condition. All pMHC complexes used for aAPC loading and cytometric readout were derived from UV-induced MHC ligand exchange with minor modifications. In order to determine the amount of pMHC monomer obtained by exchange we performed streptavidin-based sandwich ELISAs according to (Rodenko et al., 2006). The purified co-stimulatory mouse IgG2a anti human CD28 Ab 9.3 (Jung et al., 1987) was chemically biotinylated using Sulfo-N-hydroxysuccinimidobiotin as recommended by the manufacturer (Perbio, Bonn, Germany). Beads used were 5.6 μm diameter streptavidin coated polystyrene particles (Bangs Laboratories, Illinois, USA).
800.000 beads/200 μl were coated in 96-well plates in the presence of 4×12.5 ng different biotin-pMHC, washed and 600 ng biotin anti-CD28 were added subsequently in a volume of 200 μl. Stimulations were initiated in 96-well plates by co-incubating 1×10^6 CD8+ T cells with 2×10^5 washed coated beads in 200 μl TCM supplemented with 5 ng/ml IL-12 (PromoCell) for 3-4 days at 37° C. Half of the medium was then exchanged by fresh TCM supplemented with 80 U/ml IL-2 and incubating was continued for 3-4 days at 37° C. This stimulation cycle was performed for a total of three times, with 12 individual wells per condition For the pMHC multimer readout using 8 different pMHC molecules per condition, a two-dimensional combinatorial coding approach was used as previously described (Andersen et al., 2012) with minor modifications encompassing coupling to 5 different fluorochromes. Finally, multimeric analyses were performed by staining the cells with Live/dead near IR dye (Invitrogen, Karlsruhe, Germany), CD8-FITC antibody clone SK1 (BD, Heidelberg, Germany) and fluorescent pMHC multimers. For analysis, a BD LSRII SORP cytometer equipped with appropriate lasers and filters was used. Peptide specific cells were calculated as percentage of total CD8+ cells. Evaluation of multimeric analysis was done using the FlowJo software (Tree Star, Oregon, USA). In vitro priming of specific multimer+ CD8+ lymphocytes was detected by comparison to irrelevant control stimulations.
Exemplary flow cytometry results after TUMAP-specific multimer staining for two peptides of the invention are shown in FIG. 4 together with corresponding negative controls.

[1] = share of positive donors in the in vitro immunogenicity experiments, given as a class symbol

Row | Substance | Donors [1] | Wells (given as a class symbol) | Donors
1 | CRB 1-001 (SYFENVHGF; listed as Homo sapiens) | ++ (20%-49 % = ++) | + (<20% = +) | –
2 | MYPYIYHVL (listed as Homo sapiens) [FAM120C-001] | ++++ (>70% = ++++) | ++ (20%-49 % = ++) | 100%
3 | KYFSFPGEL (listed as Homo sapiens) [SLC-002] | ++ (20%-49 % = ++) | + (<20% = +) | –
4 | QYQIIMTMI (listed as Homo sapiens) [FADS2-003] | +++ (50%-70% = +++) | + (<20% = +) | –
5 | YYLDKSVSI (listed as Homo sapiens) [SCARA3-002] | ++ (20%-49 % = ++) | + (<20% = +) | –
6 | VLPDADTLLHF (listed as Homo sapiens) [APC-001] | ++ (20%-49 % = ++) | + (<20% = +) | –
7 | RYSDGLLRF (listed as Homo sapiens) [LZTS1-001] | ++ (20%-49 % = ++) | + (<20% = +) | –
